# Measured values: publication PMC7719179, “Small molecule inhibition of Dynamin-dependent endocytosis targets multiple niche signals and impairs leukemia stem cells” (Nature Communications, 2020)
# Values joined by “and” are separate entries in the source; they are usually repeats but may differ in a detail not shown here. Equal entries are not always repeated. Where two headings read alike, the source gives them in different places.
# Columns and labels:
# [1] = tested on: patient-derived ETP-ALL and T-ALL xenografts; assay: Relative viability and LC50 on patient-derived ETP-ALL and T-ALL xenografts, 48 h; format: cell-based, human; design: Relative % viable cells: unit of the concentration uncertain; conditions: for CC50: Homo sapiens, read-out: LC50 Dynole 34-2
# Text: patient-derived (a ) ETP- ALL1 and (b) T-ALL 2 xenografts treated with increasing concentration of […]
# Viability was normalized to vehicle-treated cells with experiments performed in duplicates. Human CD34-positive (CD34+) hematopoietic stem and progenitors from healthy donors (N=3) were used as controls. […]
# [2] = Relative viability of human CD34+ hematopoietic stem and progenitors, 48 h; format: cell-based; design: Relative % viable cells: dose or concentration left out as unconfirmed
# Procedure: (§1) Supplementary Figure 7. Efficacy of Dynole 34-2 for human T-ALL. a, b, Relative viability (%) of patient-derived (a ) ETP- ALL1 and (b) T-ALL 2 xenografts treated with increasing concentration of Dynole 34-2 for 48 hours. Viability was normalized to vehicle-treated cells with experiments performed in duplicates. Human CD34-positive (CD34+) hematopoietic stem and progenitors from healthy donors (N=3) were used as controls. […]
# [3] = tested on: Human CD34-positive (CD34+) hematopoietic stem and progenitors; assay: as above; format: cell-based; design: Relative % viable cells: dose or concentration left out as unconfirmed; conditions: 48 h
# Procedure: as §1
# [4] = tested on: AML01-307 and AML18 patient-derived xenografts; assay: Xenograft models of human AML (AML01-307, AML18): leukemic burden in blood, bone marrow, spleen; spleen weight; format: in vivo
# Procedure: Patient-derived xenograft models were established as previously described[97],[98]. All experiments were pre-approved by the Human Research Ethics Committee of the University of New South Wales (UNSW), the UNSW Animal Care and Ethics Committee, the Alfred Health Human Ethics Committee and the AMREP Animal Ethics Committee. For transplantation assays, 10^6 splenocytes harvested from successfully engrafted primary human ETP-ALL or T-ALL xenografts were injected into nonobese diabetic/severe combined immunodeficient (NOD.Cg-Prkdc^scid, also termed NOD/SCID) or NOD/SCID/Il2rg^tm1wjl/SzJ (NSG) mice[99]. Moreover, 1.5 × 10^6 cells splenocytes harvested from successfully engrafted patient-derived AML xenografts were injected into nonobese diabetic/severe immunodeficient (NOD.Cg-Rag1^tm1MomIl2rg^tm1wjl/SzJ, also termed NRG) mice expressing human IL-3, human GM-CSF and human SCF from the SGM3 triple transgene (NRGS)[100]. Engraftment into recipients was monitored by FACS analysis of peripheral blood as previously described. […] Both males and females were used. […] Kaplan–Meier survival and statistical analyses were performed using GraphPad Prism. 6.0 software (GraphPad Software, Inc.).
# Spleen and sternum from recipients were collected, incubated at least 24 h in 3.7% neutral buffered formalin (pH 7.4), embedded in paraffin and sectioned at 8 μm onto Superforst-Plus slides. Samples were incubated with an anti-human CD45 antibody (Dako, #M0701) in Dako Autostainer Plus solution, then incubated with a sheep anti-mouse IgG conjugated to HRP and processed as per standard protocols using 3,3’ Diaminobenzidine staining (#ab64238, Abcam) for all immunoblots, as previously described. Samples were imaged and annotated using an Aperio ScanScope and software system (Leica Biosystems). […]
smiles,measurement,setting,value
"CCCCCCCCNC(=O)C(C#N)=Cc1cn(CCCN(C)C)c2ccccc12 [Dynole 34-2, 2-Cyano-N-octyl-3-(1-(3-dimethylaminopropyl)-1H-indol-3-yl)-acrylamide]",Relative % viable cells,"[1]; ALL8, dose 0.04 (unit uncertain)",90.4% and 94.4%
same,Relative % viable cells,"[1]; ALL8, dose 0.2 (unit uncertain)",80.81% and 92.6%
same,Relative % viable cells,"[1]; ALL8, dose 1 (unit uncertain)",72.11% and 72.9% and 110.2%
same,Relative % viable cells,"[1]; ALL8, dose 5 (unit uncertain)",59.7% and 59.2%
same,Relative % viable cells,"[1]; ALL8, dose 125 (unit uncertain)",1.3% and 3.1% and 2.3%
same,Relative % viable cells,"[1]; ALL29, dose 0.04 (unit uncertain)",101.7% and 96.7%
same,Relative % viable cells,"[1]; ALL29, dose 0.2 (unit uncertain)",96.7% and 101.5%
same,Relative % viable cells,"[1]; ALL29, dose 5 (unit uncertain)",40.7% and 42.8%
same,Relative % viable cells,"[1]; ALL29, dose 125 (unit uncertain)",9.1% and 6.3% and 3%
same,Relative % viable cells,"[1]; ALL33, dose 0.04 (unit uncertain)",93.7% and 90.9%
same,Relative % viable cells,"[1]; ALL33, dose 0.2 (unit uncertain)",85.9%
same,Relative % viable cells,"[1]; ALL33, dose 5 (unit uncertain)",38.4% and 45.6%
same,Relative % viable cells,"[1]; ALL33, dose 25 (unit uncertain)",25.8% and 17.5%
same,Relative % viable cells,"[1]; ALL33, dose 125 (unit uncertain)",0%
same,Relative % viable cells,"[1]; ETP1, dose 0.04 (unit uncertain)",101.2%
same,Relative % viable cells,"[1]; ETP1, dose 0.2 (unit uncertain)",100.4% and 100%
same,Relative % viable cells,"[1]; ETP1, dose 1 (unit uncertain)",99.9% and 99.8%
same,Relative % viable cells,"[1]; ETP1, dose 5 (unit uncertain)",98.2%
same,Relative % viable cells,"[1]; ETP1, dose 25 (unit uncertain)",36.3% and 35.6%
same,Relative % viable cells,"[1]; ETP1, dose 125 (unit uncertain)",7% and 0%
same,Relative % viable cells,"[1]; ETP5, dose 0.04 (unit uncertain)",102.7%
same,Relative % viable cells,"[1]; ETP5, dose 0.2 (unit uncertain)",95.7% and 97.2%
same,Relative % viable cells,"[1]; ETP5, dose 1 (unit uncertain)",97.7%
same,Relative % viable cells,"[1]; ETP5, dose 5 (unit uncertain)",90.9% and 92.8%
same,Relative % viable cells,"[1]; ETP5, dose 25 (unit uncertain)",25.9% and 13.9%
same,Relative % viable cells,"[1]; ETP5, dose 125 (unit uncertain)",2.9% and 6.9% and 3.5%
same,Relative % viable cells,"[1]; ETP12, dose 0.04 (unit uncertain)",107.6% and 104.3%
same,Relative % viable cells,"[1]; ETP12, dose 0.2 (unit uncertain)",95.8% and 90.7%
same,Relative % viable cells,"[1]; ETP12, dose 5 (unit uncertain)",77.5%
same,Relative % viable cells,"[1]; ETP12, dose 25 (unit uncertain)",2.7% and 1.6% and 1.1%
same,Relative % viable cells,"[1]; ETP12, dose 125 (unit uncertain)",2.6% and 7.9% and 2%
same,Relative % viable cells,"[1]; ETP13, dose 0.04 (unit uncertain)",91.2% and 89.4%
same,Relative % viable cells,"[1]; ETP13, dose 0.2 (unit uncertain)",91.8% and 87.5%
same,Relative % viable cells,"[1]; ETP13, dose 1 (unit uncertain)",90.4% and 102.1%
same,Relative % viable cells,"[1]; ETP13, dose 5 (unit uncertain)",60.7% and 66.4% and 84.4%
same,Relative % viable cells,"[1]; ETP13, dose 25 (unit uncertain)",4.2% and 3.5%
same,Relative % viable cells,"[1]; ETP13, dose 125 (unit uncertain)",1.5% and 2.3% and 0.7%
same,Relative % viable cells,"[1]; ETP14, dose 0.04 (unit uncertain)",74% and 80.7% and 108.4%
same,Relative % viable cells,"[1]; ETP14, dose 0.2 (unit uncertain)",80.8% and 85.9%
same,Relative % viable cells,"[1]; ETP14, dose 1 (unit uncertain)",56.6% and 73.2% and 82.4%
same,Relative % viable cells,"[1]; ETP14, dose 5 (unit uncertain)",58.1% and 85.7% and 56%
same,Relative % viable cells,"[1]; ETP14, dose 25 (unit uncertain)",10.8% and 11.5%
same,CC50,"[1]; ALL8, Relapse, Mature",5.76 µM
same,CC50,"[1]; ALL29, Diagnosis, Mature",4.51 µM
same,CC50,"[1]; ALL33, Diagnosis, Mature",2.43 µM
same,CC50,"[1]; ETP1, Diagnosis, ETP",19.9 µM
same,CC50,"[1]; ETP5, Diagnosis, ETP",49.9 µM
same,CC50,"[1]; ETP12, Diagnosis, ETP",4.26 µM
same,CC50,"[1]; ETP13, Diagnosis, ETP",7.05 µM
same,CC50,"[1]; ETP14, Diagnosis, ETP",5.25 µM
same,"viability at 48 h, 0.04 mM","[2]; CD34, dose 0.04 mM, read-out: Relative % viable cells",99.5%
same,"viability at 48 h, 0.2 mM","[2]; CD34, dose 0.2 mM, read-out: Relative % viable cells",99.5%
same,"viability at 48 h, 0.04 mM",[2]; Relative % viable cells,99.4%
same,"viability at 48 h, 0.2 mM",[2]; Relative % viable cells,98.9%
same,Relative % viable cells,[3],98.8%
same,Absolute numbers human CD45+ cells,"[4]; AML01-307, BM",749000 and 744000 and 1060000
same,Absolute numbers human CD45+ cells,"[4]; AML01-307, Spleen",5750000 and 6290000 and 9130000
same,Proportion of hCD45+ (%) in peripheral blood,"[4]; AML01-307, time 1 weeks",0.7% and 0.2% and 0.4% and 0.1%
same,Proportion of hCD45+ (%) in peripheral blood,"[4]; AML01-307, time 2 weeks",0.7% and 1.2% and 3.7% and 1% and 1.9% and 0.8%
same,Proportion of hCD45+ (%) in peripheral blood,"[4]; AML01-307, time 3 weeks",2.8% and 3.7% and 3.9% and 4.4% and 5.1% and 2% and 1.3%
same,Proportion of hCD45+ (%) in peripheral blood,"[4]; AML01-307, time 4 weeks",5.1% and 5.66% and 9.2% and 9% and 8.38% and 2.7% and 2.566% and 4.8%
same,Proportion of hCD45+ (%) in peripheral blood,"[4]; AML01-307, time 5 weeks",5.6% and 7.7% and 4.3% and 6.7% and 5.2% and 3.11% and 3.44% and 4.93%
same,Proportion of hCD45+ (%) in peripheral blood,"[4]; AML01-307, time 6 weeks",17.22%
same,Proportion of hCD45+ (%) in peripheral blood,"[4]; AML01-307, time 8 weeks",18.86% and 22% and 33.26% and 20.57% and 30.66% and 22.85%
same,Proportion of hCD45+ (%) in peripheral blood,"[4]; AML01-307, time 9 weeks",36.6% and 52.3% and 29.5% and 40.0%
same,Absolute numbers human CD45+ cells,"[4]; AML18, BM",436000 and 427000 and 629000 and 665000
same,Proportion of hCD45+ (%) in peripheral blood,"[4]; AML18, time 1 weeks",0.1% and 0.2% and 0.6% and 0.5% and 0.0% and 0.4%
same,Proportion of hCD45+ (%) in peripheral blood,"[4]; AML18, time 4 weeks",31.4%
same,Proportion of hCD45+ (%) in peripheral blood,"[4]; AML18, time 7 weeks",30.6% and 36.7%
same,Proportion of human CD45 (%) in peripheral blood,[4]; AML18 xenograft recipients,2% and 5.6% and 2.4% and 1.6% and 4.8% and 5% and 2.26% and 2.3%
same,Spleen weight,[4]; PDX AML01-307,0.115 g and 0.137 g and 0.108 g
same,Spleen weight,[4]; PDX AML18,0.297 g and 0.287 g and 0.182 g and 0.316 g
